According to ChEMBL document CHEMBL5291721, “A preclinical secondary pharmacology resource illuminates target-adverse drug reaction associations of marketed drugs” (Nat Commun, 2023):

Tests used:
D(1A) dopamine receptor = D(1A) dopamine receptor (Homo sapiens, UniProt P21728); format: functional, cell-based
Adenosine receptor A3 = target: T1, Adenosine receptor A3 (Homo sapiens, UniProt P0DMS8)
T1 sequence (P0DMS8 whole entry): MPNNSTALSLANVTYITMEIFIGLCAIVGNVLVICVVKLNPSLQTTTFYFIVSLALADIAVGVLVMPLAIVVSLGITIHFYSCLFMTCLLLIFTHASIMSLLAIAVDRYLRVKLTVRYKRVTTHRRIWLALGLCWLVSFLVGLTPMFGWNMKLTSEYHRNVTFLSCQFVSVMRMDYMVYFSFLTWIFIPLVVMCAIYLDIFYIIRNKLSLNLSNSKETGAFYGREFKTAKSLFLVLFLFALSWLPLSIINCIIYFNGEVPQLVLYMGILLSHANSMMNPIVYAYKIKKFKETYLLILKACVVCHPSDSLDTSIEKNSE

Adenosine receptor A1 = target: T2, Adenosine receptor A1 (Homo sapiens, UniProt P30542)
T2 sequence (P30542 whole entry): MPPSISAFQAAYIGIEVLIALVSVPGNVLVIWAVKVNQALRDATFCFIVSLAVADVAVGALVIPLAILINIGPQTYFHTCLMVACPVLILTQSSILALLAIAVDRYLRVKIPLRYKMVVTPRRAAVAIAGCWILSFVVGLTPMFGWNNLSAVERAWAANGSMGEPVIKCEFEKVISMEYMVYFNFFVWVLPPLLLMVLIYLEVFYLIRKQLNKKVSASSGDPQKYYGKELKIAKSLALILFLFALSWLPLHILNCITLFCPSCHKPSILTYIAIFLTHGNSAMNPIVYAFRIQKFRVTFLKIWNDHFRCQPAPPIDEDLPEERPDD

[1] = target: cGMP-inhibited 3',5'-cyclic phosphodiesterase 3A (Homo sapiens, UniProt Q14432); format: functional
[2] = target: T3, Alpha-2A adrenergic receptor (Homo sapiens, UniProt P08913); format: functional, cell-based
T3 sequence (P08913 whole entry): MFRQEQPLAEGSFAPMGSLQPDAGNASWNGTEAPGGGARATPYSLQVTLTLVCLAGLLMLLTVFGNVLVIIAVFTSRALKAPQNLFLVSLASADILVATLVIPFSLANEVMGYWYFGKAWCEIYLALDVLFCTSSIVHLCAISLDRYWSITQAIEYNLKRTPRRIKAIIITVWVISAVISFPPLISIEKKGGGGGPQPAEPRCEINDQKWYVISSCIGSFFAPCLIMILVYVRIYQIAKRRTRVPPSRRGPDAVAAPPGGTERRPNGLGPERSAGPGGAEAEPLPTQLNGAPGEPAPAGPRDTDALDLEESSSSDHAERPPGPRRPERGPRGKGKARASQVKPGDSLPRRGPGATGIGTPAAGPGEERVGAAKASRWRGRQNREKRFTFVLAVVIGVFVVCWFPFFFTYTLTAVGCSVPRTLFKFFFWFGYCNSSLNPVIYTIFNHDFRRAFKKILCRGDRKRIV

[3] = target: T4, 5-hydroxytryptamine receptor 1A (Homo sapiens, UniProt P08908); format: functional, cell-based
T4 sequence (P08908 whole entry): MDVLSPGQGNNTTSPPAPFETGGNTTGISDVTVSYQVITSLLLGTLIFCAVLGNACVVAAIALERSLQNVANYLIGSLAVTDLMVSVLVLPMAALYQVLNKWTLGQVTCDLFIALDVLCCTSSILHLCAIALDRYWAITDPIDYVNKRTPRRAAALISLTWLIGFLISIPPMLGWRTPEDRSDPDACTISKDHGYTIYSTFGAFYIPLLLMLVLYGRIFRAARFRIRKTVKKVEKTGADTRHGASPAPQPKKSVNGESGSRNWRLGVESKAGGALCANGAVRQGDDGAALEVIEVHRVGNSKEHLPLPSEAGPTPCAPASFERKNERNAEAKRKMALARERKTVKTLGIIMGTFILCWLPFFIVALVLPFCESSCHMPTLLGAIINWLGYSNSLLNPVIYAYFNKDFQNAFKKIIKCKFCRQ

[4] = target: T5, Muscarinic acetylcholine receptor M1 (Homo sapiens, UniProt P11229); format: functional
T5 sequence (P11229 whole entry): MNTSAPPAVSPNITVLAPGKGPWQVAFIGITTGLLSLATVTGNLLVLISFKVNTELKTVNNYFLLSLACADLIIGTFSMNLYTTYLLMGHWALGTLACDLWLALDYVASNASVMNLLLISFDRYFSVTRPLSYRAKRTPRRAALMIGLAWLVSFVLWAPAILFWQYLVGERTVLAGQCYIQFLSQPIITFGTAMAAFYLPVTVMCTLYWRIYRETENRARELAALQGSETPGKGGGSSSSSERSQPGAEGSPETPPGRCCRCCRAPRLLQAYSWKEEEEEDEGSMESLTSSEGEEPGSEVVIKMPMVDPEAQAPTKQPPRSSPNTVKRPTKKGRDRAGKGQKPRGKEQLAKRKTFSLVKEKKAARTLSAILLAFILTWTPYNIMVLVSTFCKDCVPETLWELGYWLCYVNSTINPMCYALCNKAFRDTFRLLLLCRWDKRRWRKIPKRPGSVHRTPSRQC

Melanocortin receptor 3 = Melanocortin receptor 3 (Homo sapiens, UniProt P41968)
Note: assay procedure not described here.

Sequence of cGMP-inhibited 3',5'-cyclic phosphodiesterase 3A (Q14432 whole entry): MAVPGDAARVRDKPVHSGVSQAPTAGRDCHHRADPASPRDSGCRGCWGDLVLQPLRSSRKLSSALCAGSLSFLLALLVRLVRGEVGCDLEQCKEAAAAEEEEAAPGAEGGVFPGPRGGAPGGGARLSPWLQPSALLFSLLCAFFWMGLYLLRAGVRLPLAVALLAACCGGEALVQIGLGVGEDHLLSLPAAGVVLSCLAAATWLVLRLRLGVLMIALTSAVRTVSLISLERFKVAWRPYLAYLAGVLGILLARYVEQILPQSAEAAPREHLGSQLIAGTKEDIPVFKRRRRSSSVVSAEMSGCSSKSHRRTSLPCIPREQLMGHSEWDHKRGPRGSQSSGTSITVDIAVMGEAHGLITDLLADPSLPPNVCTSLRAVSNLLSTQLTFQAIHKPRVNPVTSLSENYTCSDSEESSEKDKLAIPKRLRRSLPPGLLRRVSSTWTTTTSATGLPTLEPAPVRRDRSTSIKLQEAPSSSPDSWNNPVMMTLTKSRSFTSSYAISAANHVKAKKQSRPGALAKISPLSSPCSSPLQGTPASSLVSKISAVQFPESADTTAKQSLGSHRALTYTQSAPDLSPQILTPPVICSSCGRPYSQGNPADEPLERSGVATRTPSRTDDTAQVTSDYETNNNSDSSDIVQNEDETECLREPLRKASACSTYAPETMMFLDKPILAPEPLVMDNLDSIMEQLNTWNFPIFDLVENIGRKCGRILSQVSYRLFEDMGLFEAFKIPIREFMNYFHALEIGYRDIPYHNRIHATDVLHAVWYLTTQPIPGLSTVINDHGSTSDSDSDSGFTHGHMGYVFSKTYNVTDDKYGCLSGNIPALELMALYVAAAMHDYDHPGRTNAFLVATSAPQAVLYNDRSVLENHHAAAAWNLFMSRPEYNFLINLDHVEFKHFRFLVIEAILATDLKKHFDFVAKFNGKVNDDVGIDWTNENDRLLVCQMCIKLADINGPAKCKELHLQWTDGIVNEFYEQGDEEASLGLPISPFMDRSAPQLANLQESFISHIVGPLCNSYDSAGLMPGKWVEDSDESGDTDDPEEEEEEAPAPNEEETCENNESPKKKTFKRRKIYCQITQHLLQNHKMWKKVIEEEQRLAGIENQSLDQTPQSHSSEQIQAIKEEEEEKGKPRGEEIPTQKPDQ
Sequence of Melanocortin receptor 3 (P41968 whole entry): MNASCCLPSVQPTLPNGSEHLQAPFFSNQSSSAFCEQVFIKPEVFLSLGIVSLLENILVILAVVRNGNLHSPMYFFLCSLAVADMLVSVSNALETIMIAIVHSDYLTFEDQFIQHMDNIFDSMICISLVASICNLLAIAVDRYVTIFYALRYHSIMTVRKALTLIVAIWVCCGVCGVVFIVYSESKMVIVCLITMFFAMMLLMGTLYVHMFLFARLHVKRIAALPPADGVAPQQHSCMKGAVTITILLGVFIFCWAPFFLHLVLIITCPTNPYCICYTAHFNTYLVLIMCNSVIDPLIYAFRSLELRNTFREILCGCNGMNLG
Sequence of D(1A) dopamine receptor (P21728 whole entry): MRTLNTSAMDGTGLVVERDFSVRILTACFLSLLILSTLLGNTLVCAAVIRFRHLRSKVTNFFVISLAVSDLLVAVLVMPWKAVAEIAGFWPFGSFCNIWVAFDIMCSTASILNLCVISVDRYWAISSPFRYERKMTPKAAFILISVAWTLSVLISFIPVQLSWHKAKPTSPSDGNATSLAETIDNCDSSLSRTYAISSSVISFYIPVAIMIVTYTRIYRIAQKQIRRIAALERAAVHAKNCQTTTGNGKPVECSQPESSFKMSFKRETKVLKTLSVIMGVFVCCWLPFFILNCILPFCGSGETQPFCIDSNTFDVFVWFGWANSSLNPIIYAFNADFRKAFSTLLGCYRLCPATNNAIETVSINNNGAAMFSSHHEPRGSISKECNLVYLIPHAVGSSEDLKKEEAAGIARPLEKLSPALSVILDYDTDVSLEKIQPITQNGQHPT

Row | Structure (SMILES) | AC50 (D(1A) dopamine receptor) [µM] | AC50 (Adenosine receptor A3) [µM] | AC50 (Adenosine receptor A1) [µM] | AC50 [1] [µM] | AC50 [2] [µM] | AC50 [3] [µM] | AC50 [4] [µM] | AC50 (Melanocortin receptor 3) [µM]
1 | CC(C)c1cc2c(cc1S(=O)(=O)O)[C@@]1(C)CCC[C@@](C)(C(=O)O)[C@@H]1CC2 [ECABET] | > 30 | > 30 | > 30 | > 30 | > 30 | > 30 | > 30 | > 30
2 | CC(C)OC(=O)C(C(=O)OC(C)C)=C1SC=CS1 [MALOTILATE] | > 30 | > 30 | > 30 | > 30 | > 30 | > 30 | > 30 | > 30
3 | C=CC(N)CCC(=O)O (centres undefined) [VIGABATRIN] | > 10 | > 10 | > 10 | > 30 | > 10 | > 10 | > 10 | > 10
4 | Cc1ccc(=O)n(-c2ccccc2)c1 [PIRFENIDONE] | > 30 | > 30 | > 30 | > 30 | > 30 | > 30 | > 30 | > 30
5 | CCCCCCOC(=O)CCC(=O)CN [HEXAMINOLEVULINATE] | > 30 | > 30 | > 30 | > 30 | > 30 | > 30 | > 30 | > 30
6 | O=C(O)c1ccccc1Nc1cccc(C(F)(F)F)c1 [FLUFENAMIC ACID] | > 10 | 26.3 | > 30 | > 30 | > 30 | > 30 | 0.54 | > 30
7 | COC(=O)N[C@@H](C)CNc1nccc(-c2cn(C(C)C)nc2-c2cc(Cl)cc(NS(C)(=O)=O)c2F)n1 [ENCORAFENIB] | > 30 | > 30 | > 30 | 25 | > 30 | > 30 | > 30 | > 30
8 | CCCOC(C(=O)OC1CCN(C)CC1)(c1ccccc1)c1ccccc1 [PROPIVERINE] | > 30 | > 30 | > 30 | > 30 | > 30 | > 30 | 1.7 | > 30
9 | Clc1ccc2c(c1)C(c1ccccc1)=NCc1nncn1-2 [ESTAZOLAM] | > 10 | > 30 | > 30 | > 30 | > 10 | > 10 | > 10 | > 30
10 | N[C@H](Cc1cc(I)c(Oc2cc(I)c(O)c(I)c2)c(I)c1)C(=O)O [DEXTROTHYROXINE] | > 10 | 12.5 | > 30 | > 10 | > 10 | > 10 | > 10 | > 30
11 | Nc1nc(F)nc2c1ncn2[C@@H]1O[C@H](COP(=O)(O)O)[C@@H](O)[C@@H]1O [FLUDARABINE PHOSPHATE] | > 30 | > 30 | > 30 | > 30 | > 30 | > 30 | > 30 | > 30
12 | N#Cc1ccccc1-c1cc(-c2ccccn2)cn(-c2ccccc2)c1=O | > 30 | > 30 | > 30 | > 30 | > 30 | > 30 | > 30 | > 30
13 | CCOC(=O)Nc1ccc2c(c1)N(C(=O)CCN1CCOCC1)c1ccccc1S2 [MORICIZINE] | > 30 | > 30 | > 30 | > 30 | > 30 | 13 | 22 | > 30
14 | N#C[C@@H]1CCCN1C(=O)CNC12CC3CC(CC(O)(C3)C1)C2 [VILDAGLIPTIN] | > 30 | > 30 | > 30 | > 30 | > 30 | > 30 | > 30 | > 30
15 | COc1c(O[C@@H]2O[C@H](CO)[C@@H](O)[C@H](O)[C@H]2O)cc2c(c1OC)-c1ccc(SC)c(=O)cc1[C@@H](NC(C)=O)CC2 [THIOCOLCHICOSIDE] | > 30 | > 30 | > 30 | > 30 | > 30 | > 30 | > 30 | > 30
16 | Clc1ccc(C(Cn2ccnc2)OCc2ccc(Sc3ccccc3)cc2)c(Cl)c1 (centres undefined) [FENTICONAZOLE] | > 30 | 6.4 | > 30 | > 30 | > 30 | > 30 | > 30 | 21
17 | CCCCC1(CC)C(=O)NC(=O)NC1=O [BUTETHAL] | > 30 | > 30 | > 30 | > 30 | > 30 | > 30 | > 30 | > 30
18 | CC(=O)O[C@H]1C[C@@H]2CC[C@@H]3[C@H](CC[C@@]4(C)[C@H]3C[C@H]([N+]3(C)CCCCC3)[C@@H]4OC(C)=O)[C@@]2(C)C[C@@H]1[N+]1(C)CCCCC1 [PANCURONIUM] | > 10 | > 10 | > 10 | > 30 | > 10 | > 10 | > 10 | > 10
19 | CCC(C)(Oc1ccc(C2(c3ccc(OC(C)(CC)C(=O)O)cc3)CCCCC2)cc1)C(=O)O (centres undefined) [CLINOFIBRATE] | > 30 | 20 | > 30 | > 30 | > 30 | > 30 | > 30 | > 30
20 | COc1cc2c(Nc3ccc(Br)cc3F)ncnc2cc1OCC1CCN(C)CC1 [VANDETANIB] | > 30 | 23 | > 30 | > 30 | 2.1 | > 30 | 11 | > 30
21 | CC(CCc1ccccc1)NC(C)C(O)c1ccc(O)cc1 (centres undefined) [NYLIDRIN] | > 10 | > 30 | > 30 | > 30 | 19 | > 10 | > 10 | > 30
22 | Cc1ccc(NC(=O)C2(c3ccc4c(c3)OC(F)(F)O4)CC2)nc1-c1cccc(C(=O)O)c1 [LUMACAFTOR] | > 30 | 15 | > 30 | > 30 | > 30 | > 30 | > 30 | > 30
23 | O=C(O)c1ccccc1OP(=O)(O)O [FOSFOSAL] | > 30 | > 30 | > 30 | 9.8 | > 30 | > 30 | > 30 | > 30
